BindingDB's records for doi:10.1016/j.bmcl.2009.04.079 (China Pharmaceutical University, 2009)
Structures can show the parent of a compound that is named as a salt.

Assay: Inhibition of NHE1-mediated rat platelet swelling
COc1ccc(CN2CCN(Cc3ccc(C(=O)NC(=N)N)cc3S(N)(=O)=O)CC2)c(OC)c1OC [N-(diaminomethylene)-3-sulfamoyl-4-((4-(2,3,4-trimethoxybenzyl)piperazin-1-yl)methyl)benzamide hydrochloride] showed an IC50 of 11.5 nM.
Compound COc1ccc(CN2CCN(Cc3ccc(C(=O)NC(=N)N)cc3Br)CC2)c(OC)c1OC [3-bromo-N-(diaminomethylene)-4-((4-(2,3,4-trimethoxybenzyl)piperazin-1-yl)methyl)benzamide hydrochloride] has an IC50 of 248 nM.
COc1ccc(CN2CCN(Cc3ccccc3C(=O)NC(=N)N)CC2)c(OC)c1OC [N-(diaminomethylene)-2-((4-(2,3,4-trimethoxybenzyl)piperazin-1-yl)methyl)benzamide hydrochloride] gave an IC50 of 11.1 nM.
With CCCNS(=O)(=O)c1cc(C(=O)NC(=N)N)ccc1CN1CCN(Cc2ccc(OC)c(OC)c2OC)CC1 [N-(diaminomethylene)-3-(N-propylsulfamoyl)-4-((4-(2,3,4-trimethoxybenzyl)piperazin-1-yl)methyl)benzamide hydrochloride] the IC50 was 1150 nM.
In the case of COc1ccc(CN2CCN(Cc3ccc(C(=O)NC(=N)N)cc3)CC2)c(OC)c1OC [N-(diaminomethylene)-4-((4-(2,3,4-trimethoxybenzyl)piperazin-1-yl)methyl)benzamide hydrochloride], the IC50 is reported as 36.4 nM.
Compound COc1ccc(CN2CCN(Cc3ccc(C(=O)NC(=N)N)cc3[N+](=O)[O-])CC2)c(OC)c1OC has an IC50 of 3.6 nM.
For COc1ccc(CN2CCN(Cc3cc(C(=O)NC(=N)N)ccc3[N+](=O)[O-])CC2)c(OC)c1OC [N-(diaminomethylene)-4-nitro-3-((4-(2,3,4-trimethoxybenzyl)piperazin-1-yl)methyl)benzamide hydrochloride], the IC50 was 14.2 nM.
For CNS(=O)(=O)c1cc(C(=O)NC(=N)N)ccc1CN1CCN(Cc2ccc(OC)c(OC)c2OC)CC1 [N-(diaminomethylene)-3-(N-methylsulfamoyl)-4-((4-(2,3,4-trimethoxybenzyl)piperazin-1-yl)methyl)benzamide hydrochloride], the IC50 was 15 nM.
COc1ccc(CN2CCN(C(C)c3ccc(C(=O)NC(=N)N)cc3[N+](=O)[O-])CC2)c(OC)c1OC (stereo unspecified) [N-(diaminomethylene)-3-nitro-4-(1-(4-(2,3,4-trimethoxybenzyl)piperazin-1-yl)ethyl)benzamide hydrochloride] gave an IC50 of 18.7 nM.
For COc1ccc(CN2CCN(Cc3cccc(C(=O)NC(=N)N)c3)CC2)c(OC)c1OC [N-(diaminomethylene)-3-((4-(2,3,4-trimethoxybenzyl)piperazin-1-yl)methyl)benzamide hydrochloride], the IC50 was 36.5 nM.
Compound COc1ccc(CN2CCN(C(C)c3ccc(C(=O)NC(=N)N)cc3)CC2)c(OC)c1OC (stereo unspecified) [N-(diaminomethylene)-4-(1-(4-(2,3,4-trimethoxybenzyl)piperazin-1-yl)ethyl)benzamide hydrochloride] has an IC50 of 40.5 nM.
